Measurements reported in patent US12570661B2, “Isoform-specific aldehyde dehydrogenase inhibitors” (The Board of Trustees of the Leland Stanford Junior …, priority 2020, dated 2026).
One block for each compound: values may come before it.

Legend:
[1] = system: 5-FU-resistant SW480 cells; assay: Spheroid growth of 5-FU-resistant versus parental SW480 cells; type: cell-based, human; conditions: spheroid culture
Description: The parental SW480 cells were cultured in RPMI-1640 medium containing 10% FBS, 100 U/mL penicillin, 100 μg/mL streptomycin, and 1 μM 5-FU for two weeks. The 5-FU concentration in the culture medium was then increased to 5 μM and after another two weeks raised further to 10 μM. The resulting 5-FU-resistant SW480 cells were maintained in culture medium with 10 μM 5-FU.
To prepare Matrigel-coated culture plates, 96-well and 24-well plates were placed on ice and coated with 25 μL or 300 μL, respectively, of Matrigel matrix (Corning, LDEV-free) that had been thawed overnight at 4° C. The plates were then placed in a 37° C. incubator for 30 min to allow the Matrigel to solidify. […]
SW480 or HCT116 cells were seeded into regular or Matrigel-coated 96-well plates at a density of 1000 cells/well. […] Each culture was maintained for 7 days, and then cell viabilities were measured using a CellTiter-Glo 3D Cell Viability Assay kit (Promega). […] A 150-μL aliquot from each well was then transferred into a white opaque 96-well assay plate (flat-bottom and non-treated; Corning Costar) and luminescence intensities were measured with a Veritas microplate luminometer (Turner BioSystems).

ALDH2 = molecular target: T1, ALDH2 (Homo sapiens, UniProt P05091); assay: ALDH2 enzyme kinetics assay; type: biochemical; conditions: 50-μM compound concentration
T1 construct: made in house
T1 sequence (P05091 18-517): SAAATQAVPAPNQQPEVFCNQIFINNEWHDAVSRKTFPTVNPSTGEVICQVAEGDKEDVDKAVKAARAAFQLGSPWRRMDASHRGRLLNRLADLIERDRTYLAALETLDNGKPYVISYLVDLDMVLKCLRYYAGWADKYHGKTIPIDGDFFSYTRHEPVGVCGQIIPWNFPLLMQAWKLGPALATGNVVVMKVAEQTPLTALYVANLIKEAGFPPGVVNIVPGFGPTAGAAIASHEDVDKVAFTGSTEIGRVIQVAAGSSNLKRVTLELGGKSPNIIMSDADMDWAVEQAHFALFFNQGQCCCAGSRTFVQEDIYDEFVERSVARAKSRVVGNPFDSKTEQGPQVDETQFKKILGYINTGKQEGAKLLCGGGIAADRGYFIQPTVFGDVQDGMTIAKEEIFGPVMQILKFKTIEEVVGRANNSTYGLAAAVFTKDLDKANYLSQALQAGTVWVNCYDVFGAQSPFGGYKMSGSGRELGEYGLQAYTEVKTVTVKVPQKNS
Description: (§1) Cloning, expression, and purification of human recombinant ALDH1A1, ALDH1A3, ALDH2, ALDH3A1, ALDH3A2, ALDH4A1, ALDH5A1 and ALDH7A1 isozymes were conducted as described previously (Chen, C. H. et al. (2015) Proc. Natl. Acad. Sci. U.S.A. 112, 3074-3079). Human ALDH1A2 (Origene, SC109995) and ALDH1B1 (T. Hurley, Indiana University) plasmids were cloned into the pET-15b expression vector (Novagen, 69661-3) containing an N-terminal hexahistidine tag. The mitochondria-targeting sequence of ALDH1B1 was also removed. […] The protein concentration for each fraction was measured (500 μL elution volume was collected as one fraction and was immediately mixed with 500 μL glycerol. The protein concentration for each fraction was measured (600 nm Protein Assay Reagent; Thermo Fisher Scientific), and protein-containing fractions were diluted with an equal volume of glycerol and stored at −80° C. Samples from each step were also collected for SDS-PAGE gel analysis. For ALDH1B1 protein co-expression with chaperones, pET-15b-ALDH1B1 and GroEL/GroES (Addgene, plasmid pBB541) plasmids were co-transformed into competent BL21 E. coli cells, which were subsequently grown in 1 L of Luria-Bertani medium containing 100 μg/mL ampicillin and 50 μg/mL spectinomycin at 37° C. […]

ALDH1B1 = molecular target: T2, ALDH1B1 (Homo sapiens, UniProt P30837); assay: ALDH1B1 enzyme kinetics assay (NADH fluorescence, acetaldehyde substrate); type: biochemical; parameters: made in house; host or cells: E. coli BL21 (optionally co-expressed with GroEL/GroES); conditions: enzyme kinetics assays against ALDH isoforms
T2 sequence (P30837 18-517): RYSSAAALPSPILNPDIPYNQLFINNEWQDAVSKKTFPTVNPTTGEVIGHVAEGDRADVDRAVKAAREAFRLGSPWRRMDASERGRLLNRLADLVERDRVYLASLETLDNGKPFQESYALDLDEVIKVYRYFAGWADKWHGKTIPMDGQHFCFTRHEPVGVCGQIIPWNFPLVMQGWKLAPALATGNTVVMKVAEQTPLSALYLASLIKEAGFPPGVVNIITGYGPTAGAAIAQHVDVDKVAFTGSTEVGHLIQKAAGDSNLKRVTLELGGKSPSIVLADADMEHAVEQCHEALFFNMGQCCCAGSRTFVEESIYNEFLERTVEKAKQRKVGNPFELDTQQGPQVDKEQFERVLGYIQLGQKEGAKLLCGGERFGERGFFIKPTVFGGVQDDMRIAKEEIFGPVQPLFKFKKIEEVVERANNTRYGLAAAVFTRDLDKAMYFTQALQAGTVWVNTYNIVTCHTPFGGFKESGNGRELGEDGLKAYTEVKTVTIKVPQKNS
Description: Cloning, expression, and purification of human recombinant ALDH1A1, ALDH1A3, ALDH2, ALDH3A1, ALDH3A2, ALDH4A1, ALDH5A1 and ALDH7A1 isozymes were conducted as described previously (Chen, C. H. et al. (2015) Proc. Natl. Acad. Sci. U.S.A. 112, 3074-3079). Human ALDH1A2 (Origene, SC109995) and ALDH1B1 (T. Hurley, Indiana University) plasmids were cloned into the pET-15b expression vector (Novagen, 69661-3) containing an N-terminal hexahistidine tag. The mitochondria-targeting sequence of ALDH1B1 was also removed. For protein expression without chaperones, the pET-15b based plasmids were transformed into competent BL21 E. coli cells, which were subsequently grown in 1 L of Luria-Bertani medium containing 100 μg/mL ampicillin at 37° C. Once the OD600 value reached 0.6, the culture was transferred to 16° C. and 0.5 mM isopropyl β-d-1-thiogalactopyranoside was introduced to induce protein expression overnight. The bacteria were then pelleted by centrifugation (3000×g, 4° C. for 30 rain) and harvested. 40 mL BugBuster Master Mix buffer (MilliporeSigrna) containing a protease inhibitor cocktail (cOmplete; Roche) was added, and the cells were lysed by mechanically rolling the suspension at room temperature for 25 min. The lysate was centrifuged (16000×g, 4° C. for 30 min), and the soluble fraction was collected and mixed with 2 mL of Ni-NTA Superflow resin (Qiagen). After the mixture was avowed to rock at 4° C. for 1 h, it was used to create a 10-mL gravity column, which was sequentially treated with 40 mL of wash buffer 1 (20 mM sodium phosphate, 500 mM NaCl, 1 mM DTT, 20 mM imidazole, 5% glycerol, pH 7.4) and 25 mL of wash buffer 2 (20 mM sodium phosphate, 500 mM NaCl, 1 mM DTT, 40 mM imidazole, 5% glycerol, pH 7.4). The hexahistidine-tagged protein was then recovered by treated the column with 5 mL elution buffer (20 mM sodium phosphate, 500 mM NaCl, 1 mM DTT, 400 mM imidazole, 5% glycerol, pH 7.4) and collecting 500-μL fractions. The protein concentration for each fraction was measured (500 μL elution volume was collected as one fraction and was immediately mixed with 500 μL glycerol. The protein concentration for each fraction was measured (600 nm Protein Assay Reagent; Thermo Fisher Scientific), and protein-containing fractions were diluted with an equal volume of glycerol and stored at −80° C. Samples from each step were also collected for SDS-PAGE gel analysis. For ALDH1B1 protein co-expression with chaperones, pET-15b-ALDH1B1 and GroEL/GroES (Addgene, plasmid pBB541) plasmids were co-transformed into competent BL21 E. coli cells, which were subsequently grown in 1 L of Luria-Bertani medium containing 100 μg/mL ampicillin and 50 μg/mL spectinomycin at 37° C. The hexahistidine-tagged ALDH1B1 protein was then expressed and purified as described above.
To evaluate compound activities against ALDH isoforms, reaction mixtures consisting of enzyme assay buffer (100 mM sodium phosphate, 1 mM MgCl2, pH 8.0) and 0.1% DMSO, 1 mM β-mercaptoethanol, 1 mM NAD^+, and the bacterially expressed protein were prepared in white opaque 96-well assay plates (100 μL/well, flat-bottom and non-treated; Corning Costar). 5 μg/mL ALDH enzyme was used for single-dose (1, 10, 50 μM) compound test, and 1 μg/mL ALDH enzyme was used for IC50s determination. Acetaldehyde was then added to each well to achieve an initial substrate concentration of 1 mM, and the resulting enzymatic activity was measured based on NADH fluorescence. The fluorescence signal was read over the course of 10 min on a SpectraMax M2e microplate reader (340-nm excitation and 460-nm emission; Molecular Devices) operated by SoftMax Pro software. Compound activities were normalized to a DMSO control, and dose-response inhibition curves were fitted with four-parameter non-linear regression using Prism software. […]

ALDH1A3 = molecular target: T3, ALDH1A3 (Homo sapiens, UniProt P47895); assay: ALDH1A3 enzyme kinetics assay; type: biochemical; conditions: enzyme kinetics assays, 1-μM dose
T3 construct: made in house
T3 sequence (P47895 1-512): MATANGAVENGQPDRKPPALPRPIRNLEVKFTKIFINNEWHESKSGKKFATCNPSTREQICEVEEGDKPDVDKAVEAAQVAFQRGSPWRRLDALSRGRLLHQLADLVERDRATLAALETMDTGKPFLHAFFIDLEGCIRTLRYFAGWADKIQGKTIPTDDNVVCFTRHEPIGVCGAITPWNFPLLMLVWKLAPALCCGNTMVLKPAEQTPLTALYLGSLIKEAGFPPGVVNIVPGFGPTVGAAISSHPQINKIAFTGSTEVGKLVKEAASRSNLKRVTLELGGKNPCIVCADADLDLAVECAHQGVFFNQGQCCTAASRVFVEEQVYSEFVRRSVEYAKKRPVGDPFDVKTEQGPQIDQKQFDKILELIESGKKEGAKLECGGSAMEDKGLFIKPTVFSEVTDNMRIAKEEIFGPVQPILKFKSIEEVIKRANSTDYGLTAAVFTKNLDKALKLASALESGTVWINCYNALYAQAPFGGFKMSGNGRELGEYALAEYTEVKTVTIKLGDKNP
Description: as §1

NIH-3T3 cells = assay: Seahorse oxygen-consumption-rate assay (NIH3T3); type: cell-based, murine; conditions: Mus musculus
SW480 cells (adherent) = assay: Cell viability assay, adherent SW480 cultures; type: cell-based, human; conditions: Homo sapiens, SW480, 168 h; adherent culture, 7 days
Description: SW480 or HCT116 cells were seeded into regular or Matrigel-coated 96-well plates at a density of 1000 cells/well. The cells were cultured in the corresponding adherent or spheroid culture medium (200 μL/well) containing the designated compounds or an equivalent amount of DMSO vehicle. Each culture was maintained for 7 days, and then cell viabilities were measured using a CellTiter-Glo 3D Cell Viability Assay kit (Promega). Briefly, 100 μL of the culture medium was removed from each well and replaced with 100 μL 3D Cell Assay reagent. The cells in each well were next homogenized by vigorous pipetting, and the plate was incubated for 10 min at room temperature to stabilize the chemiluminescent signal. A 150-μL aliquot from each well was then transferred into a white opaque 96-well assay plate (flat-bottom and non-treated; Corning Costar) and luminescence intensities were measured with a Veritas microplate luminometer (Turner BioSystems).

Compound: C#CCOc1ccc(-n2cc(-c3ccc(N=[N+]=[N-])cc3)[n+]3c2CCCCC3)cc1 [Imidazolium 3]
inhibition of ALDH2 activity (ALDH2): only partially suppressed

Compound: c1ccc(-c2ccc(-c3cn(C4CCCCC4)c4[n+]3CCCCC4)cc2)cc1 [Imidazolium 53]
IC50 (NIH-3T3 cells): 170 nM
GI50 (SW480 cells (adherent)): 820 nM

The next lines start with the values.

loss of sensitivity of 5-FU-resistant SW480 line versus parental line [1]: 50 fold
Compound: O=c1[nH]cc(F)c(=O)[nH]1 [Compound 5-FU, 5-fluorouracil]

ALDH1B1 inhibition / isoform selectivity (in words) (ALDH1B1): inhibitor of both ALDH1B1 and ALDH1A3
ALDH1A3 inhibition / isoform selectivity (in words) (ALDH1A3): inhibitor of both ALDH1B1 and ALDH1A3
Compound: COc1ccccc1-n1cc(-c2ccc(-c3ccc([N+](=O)[O-])cc3)cc2)[n+]2c1CCCCC2.[Br-] [Imidazolium 10]

ALDH1A3 inhibition / isoform selectivity (in words) (ALDH1A3): ALDH1A3-specific inhibitor
Compound: CCOc1ccc(-n2cc(-c3ccc(-c4ccc(C(=O)OC)cc4)cc3)[n+]3c2CCCCC3)cc1 [Imidazolium 46]
